From US11046672B2, “Indolinones compounds and their use in the treatment of fibrotic diseases” (RESPIVERT LIMITED, priority 2015, dated 2021)
Like-named read-outs stand apart in the source and are kept apart here.

Legend:
[1] = molecular target: T1, PDGFRβ (Homo sapiens (Human), UniProt P09619); assay: PDGF-BB induced phosphorylation of PDGFRβ in fibroblasts (MRC5 cells, HTRF); format: cell-based
[2] = PAMPA permeability assay; format: in vitro ADME; conditions: PAMPA; for recovery at 5 hr, 10 μM: pH 7, PAMPA, donor and acceptor compartments; for Papp at 5 h, 10 μM: pH 7, pH 7, 10 μM
[3] = molecular target: T1, PDGFRβ; conditions: read-out: Ki PDGFRβ
[4] = tested on: MRC5 cells; assay: Cell viability assay in MRC5 cells (MTT)
[5] = MRC5 cells, n = 1 unless otherwise indicated, read-out: PDGFBB-induced PDGFRβ phosphorylation in MRC5 cells (IC50)
[6] = mean, n = 2 unless otherwise indicated

T1 sequence (P09619 33-1106): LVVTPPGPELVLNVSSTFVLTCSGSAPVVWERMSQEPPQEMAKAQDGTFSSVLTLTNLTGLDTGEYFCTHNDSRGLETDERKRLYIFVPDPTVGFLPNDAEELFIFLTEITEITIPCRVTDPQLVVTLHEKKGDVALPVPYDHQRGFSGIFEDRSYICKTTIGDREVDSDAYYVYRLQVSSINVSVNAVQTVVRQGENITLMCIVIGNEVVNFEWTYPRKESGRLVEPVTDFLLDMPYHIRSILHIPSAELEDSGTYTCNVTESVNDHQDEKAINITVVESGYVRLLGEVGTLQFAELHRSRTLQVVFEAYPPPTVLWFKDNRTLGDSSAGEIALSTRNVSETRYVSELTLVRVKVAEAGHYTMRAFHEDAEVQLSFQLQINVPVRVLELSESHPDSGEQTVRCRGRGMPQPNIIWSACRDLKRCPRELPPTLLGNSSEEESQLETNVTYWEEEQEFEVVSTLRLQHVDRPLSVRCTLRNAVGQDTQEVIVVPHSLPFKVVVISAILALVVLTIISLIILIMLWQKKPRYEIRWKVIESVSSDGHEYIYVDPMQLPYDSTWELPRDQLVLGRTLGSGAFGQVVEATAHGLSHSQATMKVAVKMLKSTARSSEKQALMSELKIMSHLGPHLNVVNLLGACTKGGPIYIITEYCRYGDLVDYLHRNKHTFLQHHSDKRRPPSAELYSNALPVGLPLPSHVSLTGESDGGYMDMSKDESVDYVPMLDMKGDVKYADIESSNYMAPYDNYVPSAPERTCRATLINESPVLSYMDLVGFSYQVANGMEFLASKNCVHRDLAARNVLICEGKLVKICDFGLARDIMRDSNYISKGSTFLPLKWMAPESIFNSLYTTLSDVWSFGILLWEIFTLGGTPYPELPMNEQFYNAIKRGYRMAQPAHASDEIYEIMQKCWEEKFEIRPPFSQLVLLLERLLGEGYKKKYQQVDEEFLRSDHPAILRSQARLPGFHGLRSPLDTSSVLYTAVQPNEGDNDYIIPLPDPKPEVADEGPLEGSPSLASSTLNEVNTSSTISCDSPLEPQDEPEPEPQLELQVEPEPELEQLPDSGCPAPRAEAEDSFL

Compound | IC50 [1, 5] | recovery at 5 hr, 10 μM [2] | Papp at 5 h, 10 μM [2] | Ki [3, 6] | Cell viability at 100 nM (%) [4] | Cell viability at 300 nM (%) [4] | Cell viability at 1000 nM (%) [4] | IC50 [1] | Ki [3]
COC(=O)c1cc2c(cc1C)/C(=C(/Nc1ccc(S(=O)(=O)NOCCN3CCN(C)CC3)cc1)c1ccccc1)C(=O)N2 [Example 2, (Z)-Methyl 5-methyl-3-(((4-(N-(2-(4-methylpiperazin-1-yl)ethoxy)sulfamoyl)phenyl)amino)(phenyl)methylene)-2-oxoindoline-6-carboxylate] | 39.6 nM | 54.1% | 0.0261 ×10⁻⁶ cm/s | 19.2 nM | 124.5% | 104.4% | 101.2% | – | –
COC(=O)c1cc2c(cc1C)/C(=C(/Nc1ccc(S(=O)(=O)N(C)OCCN(C)CCO)cc1)c1ccccc1)C(=O)N2 [Example 10, (Z)-Methyl 3-(((4-(N-(2-((2-hydroxyethyl)(methyl)amino)ethoxy)-N-methylsulfamoyl)phenyl)amino)(phenyl)methylene)-5-methyl-2-oxoindoline-6-carboxylate] | – | 92.6% | 24.8 ×10⁻⁶ cm/s | – | 105.9% | 100.9% | 42% | 13.6 nM | 17.4 nM
COC(=O)c1ccc2c(c1)NC(=O)/C2=C(\Nc1ccc(C(=O)N(C)OCCN2CCN(C)CC2)c(C)c1)c1ccccc1 [Example 18] | 3.68 nM | 51.5% | 0.424 ×10⁻⁶ cm/s | 11 nM | 104.5% | 90.3% | 68.7% | – | –
COC(=O)c1ccc2c(c1)NC(=O)/C2=C(\Nc1ccc(C(=O)NOCCCN(C)C)cc1)c1ccccc1 [Example 19] | 5.95 nM | 54.6% | 0.00329 ×10⁻⁶ cm/s | 9.62 nM | 108.3% | 92.7% | 76.9% | – | –
COC(=O)c1ccc2c(c1)NC(=O)/C2=C(\Nc1ccc(S(=O)(=O)N(C)OCCN2CCN(C)CC2)cc1)c1ccccc1 [Example 25] | 19.4 nM | 41.5% | 30 ×10⁻⁶ cm/s | 19.8 nM | 108.5% | 104.8% | 79.3% | – | –
COC(=O)c1cc2c(cc1C)/C(=C(/Nc1ccc(C(=O)NOCCCN(C)C)cc1)c1ccccc1)C(=O)N2 [Example 27] | 10.4 nM | 61.2% | 0.00146 ×10⁻⁶ cm/s | 4.77 nM | 94.9% | 88.6% | 86.4% | – | –
COC(=O)c1cc2c(cc1C)/C(=C(/Nc1ccc(C(=O)NOCCCN(C)C)c(C)c1)c1ccccc1)C(=O)N2 [Example 29] | 3.18 nM | 65.1% | 0.00415 ×10⁻⁶ cm/s | 7.48 nM | 92% | 85.8% | 91.8% | – | –
COC(=O)c1cc2c(cc1C)/C(=C(/Nc1ccc(C(=O)NOC3CCN(C)CC3)cc1)c1ccccc1)C(=O)N2 [Example 30] | 7.43 nM | 87% | 0.00225 ×10⁻⁶ cm/s | 7.32 nM | 96.1% | 87.7% | 26% | – | –
COC(=O)c1cc2c(cc1C)/C(=C(/Nc1ccc(C(=O)NOC3CCN(C)CC3)c(C)c1)c1ccccc1)C(=O)N2 [Example 31] | 7.72 nM | – | – | 6.58 nM | 111.7% | 97.3% | 95.7% | – | –
COC(=O)c1cc2c(cc1C)/C(=C(/Nc1ccc(C(=O)N(C)OCCN3CC4CC(C3)N4)cc1)c1ccccc1)C(=O)N2 [Example 66] | 15.5 nM | – | – | 16 nM | 102.8% | 92.9% | 53.8% | – | –

Further lines, with some results ahead:

IC50 [1, 5] | recovery at 5 hr, 10 μM [2] | Papp at 5 h, 10 μM [2] | Ki [3, 6] | Compound | Cell viability at 100 nM (%) [4] | Cell viability at 300 nM (%) [4] | Cell viability at 1000 nM (%) [4] | IC50 [1] | Ki [3]
13.4 nM | – | – | 15.8 nM | COC(=O)c1cc2c(cc1C)/C(=C(/Nc1ccc(C(=O)N(OC)C3CCN(C)CC3)c(C)c1)c1ccccc1)C(=O)N2 [Example 34] | 114.8% | 80% | 61.5% | – | –
26.9 nM | – | – | 22.1 nM | COC(=O)c1cc2c(cc1C)/C(=C(/Nc1ccc(C(=O)N(OC)C3CCN(C)CC3)cc1)c1ccccc1)C(=O)N2 [Example 35] | 92.9% | 77.2% | 75.7% | – | –
24.1 nM | – | – | 244 nM | COC(=O)c1ccc2c(c1)NC(=O)/C2=C(\Nc1ccc(C(=O)N2CCO2)cc1)c1ccccc1 [Example 37] | 95.2% | 98.9% | 106% | – | –
33.8 nM | – | – | 5.39 nM | COC(=O)c1ccc2c(c1)NC(=O)/C2=C(\Nc1ccc(C(=O)NOCCN2CCN(CCO)CC2)cc1)c1ccccc1 [Example 39] | 89.9% | 90.1% | 90.8% | – | –
73.9 nM | – | – | 103 nM | COC(=O)c1ccc2c(c1)NC(=O)/C2=C(\Nc1ccc(C(=O)NOCCN2[C@H](C)CCC[C@@H]2C)cc1)c1ccccc1 [Example 44] | 103% | 105.9% | 109.8% | – | –
27.2 nM | – | – | 14.1 nM | COC(=O)c1ccc2c(c1)NC(=O)/C2=C(\Nc1ccc(C(=O)NOCCN(C)CCO)cc1)c1ccccc1 [Example 45] | 98.9% | 104.7% | 80.7% | – | –
31.7 nM | – | – | 28.1 nM | COCCN1CCN(CCONC(=O)c2ccc(N/C(=C3\C(=O)Nc4cc(C(=O)OC)ccc43)c3ccccc3)cc2)CC1 [Example 46] | 120.7% | 109.5% | 86.3% | – | –
39 nM | – | – | 10.2 nM | COC(=O)c1ccc2c(c1)NC(=O)/C2=C(\Nc1ccc(C(=O)NOCCN2CCC(N(C)C)CC2)cc1)c1ccccc1 [Example 47] | 112% | 102.4% | 93% | – | –
43.8 nM | – | – | 20.3 nM | COC(=O)c1cc2c(cc1C)/C(=C(/Nc1ccc(C(=O)NOCCCN3CCCCC3)cc1)c1ccccc1)C(=O)N2 [Example 53] | 124.2% | 96.8% | 97.8% | – | –
34.1 nM | – | – | 18.1 nM | COC(=O)c1cc2c(cc1C)/C(=C(/Nc1ccc(C(=O)NOCCN3CCC(O)CC3)cc1)c1ccccc1)C(=O)N2 [Example 54] | 101% | 99.8% | 92.9% | – | –
4.74 nM | – | – | 15.7 nM | COC(=O)c1cc2c(cc1C)/C(=C(/Nc1ccc(C(=O)NOCCN3CCC(C#N)CC3)cc1)c1ccccc1)C(=O)N2 [Example 63] | 99% | 116.9% | 12.1% | – | –
